According to ChEMBL document CHEMBL4342421, “Current scenario of tetrazole hybrids for antibacterial activity” (Eur J Med Chem, 2019):
In brackets after ≈: the same amount, converted by molar mass. Blank lines part the entries; values can stand above or below the compound they belong to.

Experiments:
Format in all cases: functional
Pseudomonas aeruginosa [1] = assay: Antimicrobial activity against Pseudomonas aeruginosa assessed as zone of inhibition at 50 ug/ml; conditions: read-out: IZ
Escherichia coli [2] = assay: Antimicrobial activity against Escherichia coli assessed as zone of inhibition at 50 ug/ml; conditions: read-out: IZ
Bacillus subtilis = assay: Antimicrobial activity against Bacillus subtilis assessed as zone of inhibition at 50 ug/ml; conditions: read-out: IZ
Candida albicans [3] = assay: Antifungal activity against Candida albicans assessed as zone of inhibition at 50 ug/ml; conditions: read-out: IZ
Aspergillus fumigatus = assay: Antifungal activity against Aspergillus fumigatus assessed as zone of inhibition at 50 ug/ml; conditions: read-out: IZ
Staphylococcus aureus [4] = assay: Antimicrobial activity against Staphylococcus aureus assessed as zone of inhibition at 50 ug/ml; conditions: read-out: IZ
Bacillus cereus [5] = assay: Antimicrobial activity against Bacillus cereus assessed as zone of inhibition at 250 ug/ml; conditions: read-out: IZ
Escherichia coli [6] = assay: Antimicrobial activity against Escherichia coli assessed as zone of inhibition at 250 ug/ml; conditions: read-out: IZ
Bacillus cereus [7] = assay: Antimicrobial activity against Bacillus cereus
Pseudomonas aeruginosa [8] = assay: Antimicrobial activity against Pseudomonas aeruginosa assessed as zone of inhibition at 250 ug/ml; conditions: read-out: IZ
Staphylococcus aureus [9] = assay: Antimicrobial activity against Staphylococcus aureus assessed as zone of inhibition at 250 ug/ml; conditions: read-out: IZ
Candida albicans [10] = assay: Antifungal activity against Candida albicans
Staphylococcus aureus [11] = assay: Antimicrobial activity against Staphylococcus aureus
Aspergillus niger [12] = assay: Antifungal activity against Aspergillus niger
Escherichia coli [13] = assay: Antimicrobial activity against Escherichia coli
Pseudomonas aeruginosa [14] = assay: Antimicrobial activity against Pseudomonas aeruginosa
Aspergillus niger [15] = assay: Antifungal activity against Aspergillus niger assessed as zone of inhibition at 250 ug/ml; conditions: read-out: IZ
Candida albicans [16] = assay: Antifungal activity against Candida albicans assessed as zone of inhibition at 250 ug/ml; conditions: read-out: IZ
Aspergillus niger [17] = assay: Antifungal activity against Aspergillus niger assessed as zone of inhibition at 50 ug/ml; conditions: read-out: IZ

SMILES: O=[N+]([O-])c1ccc(-n2nnnc2-c2cccnc2)cc1
zone of inhibition at 50 µg/mL (Pseudomonas aeruginosa [1]): 10 to 22 mm
zone of inhibition at 50 µg/mL (Escherichia coli [2]): 10 to 22 mm
zone of inhibition at 50 µg/mL (Bacillus subtilis): 10 to 22 mm
zone of inhibition at 50 µg/mL (Candida albicans [3]): 10 to 22 mm
zone of inhibition at 50 µg/mL (Aspergillus fumigatus): 10 to 22 mm
zone of inhibition at 50 µg/mL (Staphylococcus aureus [4]): 10 to 22 mm

SMILES: c1ccc(-n2nnnc2-c2cccnc2)cc1
zone of inhibition at 50 µg/mL (Pseudomonas aeruginosa [1]): 10 to 22 mm
zone of inhibition at 50 µg/mL (Escherichia coli [2]): 10 to 22 mm
zone of inhibition at 50 µg/mL (Bacillus subtilis): 10 to 22 mm
zone of inhibition at 50 µg/mL (Candida albicans [3]): 10 to 22 mm
zone of inhibition at 50 µg/mL (Aspergillus fumigatus): 10 to 22 mm
zone of inhibition at 50 µg/mL (Staphylococcus aureus [4]): 10 to 22 mm

MIC (Bacillus cereus [7]): 50 to 100 µg/mL (≈ 169 to 339 µM)
MIC (Candida albicans [10]): 50 to 100 µg/mL (≈ 169 to 339 µM)
MIC (Staphylococcus aureus [11]): 50 to 100 µg/mL (≈ 169 to 339 µM)
MIC (Aspergillus niger [12]): 50 to 100 µg/mL (≈ 169 to 339 µM)
MIC (Escherichia coli [13]): 50 to 100 µg/mL (≈ 169 to 339 µM)
MIC (Pseudomonas aeruginosa [14]): 50 to 100 µg/mL (≈ 169 to 339 µM)
SMILES: Oc1cccc(-c2nnnn2-c2nc3ccccc3s2)c1
zone of inhibition at 250 µg/mL (Bacillus cereus [5]): 16 to 26 mm
zone of inhibition at 250 µg/mL (Escherichia coli [6]): 16 to 26 mm
zone of inhibition at 250 µg/mL (Pseudomonas aeruginosa [8]): 16 to 26 mm
zone of inhibition at 250 µg/mL (Staphylococcus aureus [9]): 16 to 26 mm
zone of inhibition at 250 µg/mL (Aspergillus niger [15]): 16 to 26 mm
zone of inhibition at 250 µg/mL (Candida albicans [16]): 16 to 26 mm

SMILES: COc1ccc(/C=C/C(=O)n2nnnc2-c2ccccc2)cc1
zone of inhibition at 50 µg/mL (Escherichia coli [2]): 8 to 15 mm
zone of inhibition at 50 µg/mL (Candida albicans [3]): 8 to 15 mm
zone of inhibition at 50 µg/mL (Aspergillus niger [17]): 8 to 15 mm
zone of inhibition at 50 µg/mL (Staphylococcus aureus [4]): 8 to 15 mm

SMILES: O=[N+]([O-])c1ccccc1-n1nnnc1-c1cccnc1
zone of inhibition at 50 µg/mL (Pseudomonas aeruginosa [1]): 10 to 22 mm
zone of inhibition at 50 µg/mL (Escherichia coli [2]): 10 to 22 mm
zone of inhibition at 50 µg/mL (Bacillus subtilis): 10 to 22 mm
zone of inhibition at 50 µg/mL (Candida albicans [3]): 10 to 22 mm
zone of inhibition at 50 µg/mL (Aspergillus fumigatus): 10 to 22 mm
zone of inhibition at 50 µg/mL (Staphylococcus aureus [4]): 10 to 22 mm

SMILES: Clc1cccc(-c2nnnn2-c2ccccn2)c1Cl
zone of inhibition at 50 µg/mL (Pseudomonas aeruginosa [1]): 10 to 24 mm
zone of inhibition at 50 µg/mL (Escherichia coli [2]): 10 to 24 mm
zone of inhibition at 50 µg/mL (Bacillus subtilis): 10 to 24 mm
zone of inhibition at 50 µg/mL (Candida albicans [3]): 10 to 24 mm
zone of inhibition at 50 µg/mL (Aspergillus fumigatus): 10 to 24 mm
zone of inhibition at 50 µg/mL (Staphylococcus aureus [4]): 10 to 24 mm

SMILES: c1ccc(-c2nnnn2-c2ccccn2)cc1
zone of inhibition at 50 µg/mL (Pseudomonas aeruginosa [1]): 10 to 24 mm
zone of inhibition at 50 µg/mL (Escherichia coli [2]): 10 to 24 mm
zone of inhibition at 50 µg/mL (Bacillus subtilis): 10 to 24 mm
zone of inhibition at 50 µg/mL (Candida albicans [3]): 10 to 24 mm
zone of inhibition at 50 µg/mL (Aspergillus fumigatus): 10 to 24 mm
zone of inhibition at 50 µg/mL (Staphylococcus aureus [4]): 10 to 24 mm

SMILES: Cc1ccc(/C=C/C(=O)n2nnnc2-c2ccccc2)cc1
zone of inhibition at 50 µg/mL (Escherichia coli [2]): 8 to 15 mm
zone of inhibition at 50 µg/mL (Candida albicans [3]): 8 to 15 mm
zone of inhibition at 50 µg/mL (Aspergillus niger [17]): 8 to 15 mm
zone of inhibition at 50 µg/mL (Staphylococcus aureus [4]): 8 to 15 mm

MIC (Bacillus cereus [7]): 50 to 100 µg/mL (≈ 155 to 310 µM)
MIC (Candida albicans [10]): 50 to 100 µg/mL (≈ 155 to 310 µM)
MIC (Staphylococcus aureus [11]): 50 to 100 µg/mL (≈ 155 to 310 µM)
MIC (Aspergillus niger [12]): 50 to 100 µg/mL (≈ 155 to 310 µM)
MIC (Escherichia coli [13]): 50 to 100 µg/mL (≈ 155 to 310 µM)
MIC (Pseudomonas aeruginosa [14]): 50 to 100 µg/mL (≈ 155 to 310 µM)
SMILES: CN(C)c1ccc(-c2nnnn2-c2nc3ccccc3s2)cc1
zone of inhibition at 250 µg/mL (Bacillus cereus [5]): 16 to 26 mm
zone of inhibition at 250 µg/mL (Escherichia coli [6]): 16 to 26 mm
zone of inhibition at 250 µg/mL (Pseudomonas aeruginosa [8]): 16 to 26 mm
zone of inhibition at 250 µg/mL (Staphylococcus aureus [9]): 16 to 26 mm
zone of inhibition at 250 µg/mL (Aspergillus niger [15]): 16 to 26 mm
zone of inhibition at 250 µg/mL (Candida albicans [16]): 16 to 26 mm
